Data published in PubChem BioAssay (NCI).
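A five-concentration, 48-hour dose response in 96-well plates underlies each endpoint, interpolated linearly between surrounding concentrations. TGI denotes the concentration required for complete inhibition of growth.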

Key:
Assay in all cases: NCI-60 cell line screen, 48 h
[1] = tested on: COLO 205 colon
[2] = tested on: MDA-MB-435
[3] = tested on: CCRF-CEM leukemia
[4] = tested on: NCI-H226 lung
[5] = tested on: NCI-H522 lung
[6] = tested on: MOLT-4 leukemia
[7] = tested on: ACHN renal
[8] = tested on: SK-MEL-28 melanoma
[9] = tested on: SN12C renal
[10] = tested on: PC-3 prostate
[11] = tested on: MCF7 breast
[12] = tested on: SNB-19 CNS
[13] = tested on: HT29 colon
[14] = tested on: HCC-2998 colon
[15] = tested on: HOP-62 NSCLC
[16] = tested on: T-47D breast
[17] = tested on: SK-OV-3 ovarian
[18] = tested on: HOP-92 NSCLC
[19] = tested on: NCI/ADR-RES ovarian
[20] = tested on: IGROV1 ovarian
[21] = tested on: TK-10 renal
[22] = tested on: SNB-75 CNS
[23] = tested on: SR leukemia
[24] = tested on: OVCAR-3 ovarian
[25] = tested on: SF-539 CNS
[26] = tested on: CAKI-1 renal
[27] = tested on: HL-60(TB) leukemia
[28] = tested on: UACC-257 melanoma
[29] = tested on: K-562 leukemia
[30] = tested on: RXF 393 renal
[31] = tested on: MDA-MB-231 breast
[32] = tested on: M14 melanoma
[33] = tested on: U251 CNS
[34] = tested on: A498 renal
[35] = tested on: SF-268 CNS
[36] = tested on: LOX IMVI melanoma
[37] = tested on: SK-MEL-5 melanoma
[38] = tested on: A549 NSCLC
[39] = tested on: DU-145 prostate
[40] = tested on: OVCAR-5 ovarian
[41] = tested on: KM12 colon
[42] = tested on: UO-31 renal
[43] = tested on: MALME-3M melanoma
[44] = tested on: OVCAR-4 ovarian
[45] = tested on: HCT-15 colon
[46] = tested on: SF-295 CNS
[47] = tested on: OVCAR-8 ovarian
[48] = tested on: RPMI-8226 leukemia
[49] = tested on: HS 578T breast
[50] = tested on: SW-620 colon
[51] = tested on: MDA-N
[52] = tested on: NCI-H23 lung
[53] = tested on: HCT-116 colon
[54] = tested on: 786-0 renal
[55] = tested on: SK-MEL-2 melanoma
[56] = tested on: EKVX NSCLC
[57] = tested on: NCI-H460 lung
[58] = tested on: UACC-62 melanoma
[59] = tested on: BT-549 breast

CCO/C=N\C1=C(C#N)SC2=N/C(=C\c3ccco3)C(=O)N21
TGI [1]: > 100 µM | TGI [2]: > 100 µM | TGI [3]: > 100 µM | TGI [4]: > 100 µM | TGI [5]: > 100 µM | TGI [6]: > 100 µM | TGI [7]: > 100 µM | TGI [8]: > 100 µM | TGI [9]: > 100 µM | TGI [10]: > 100 µM | TGI [11]: > 100 µM | TGI [12]: > 100 µM | TGI [13]: > 100 µM | TGI [14]: > 100 µM | TGI [15]: > 100 µM | TGI [16]: > 100 µM | TGI [17]: > 100 µM | TGI [18]: > 100 µM | TGI [19]: > 100 µM | TGI [20]: > 100 µM | TGI [21]: > 100 µM | TGI [22]: > 100 µM | TGI [23]: > 100 µM | TGI [24]: > 100 µM | TGI [25]: > 100 µM | TGI [26]: > 100 µM | TGI [27]: > 100 µM | TGI [28]: > 100 µM | TGI [29]: > 100 µM | TGI [30]: > 100 µM | TGI [31]: > 100 µM | TGI [32]: > 100 µM | TGI [33]: > 100 µM | TGI [34]: > 100 µM | TGI [35]: > 100 µM | TGI [36]: > 100 µM | TGI [37]: > 100 µM | TGI [38]: > 100 µM | TGI [39]: > 100 µM | TGI [40]: > 100 µM | TGI [41]: > 100 µM | TGI [42]: > 100 µM | TGI [43]: > 100 µM | TGI [44]: > 100 µM | TGI [45]: > 100 µM | TGI [46]: > 100 µM | TGI [47]: > 100 µM | TGI [48]: > 100 µM | TGI [49]: > 100 µM | TGI [50]: > 100 µM | TGI [51]: > 100 µM | TGI [52]: > 100 µM | TGI [53]: > 100 µM | TGI [54]: > 100 µM | TGI [55]: > 100 µM | TGI [56]: > 100 µM

CC(=O)O[C@H]1CC[C@@]2(C)C(=CC[C@@H]3[C@@H]2CC[C@]2(C)C(=O)/C(=C\c4ccccc4)C[C@@H]32)C1
TGI [1]: > 100 µM | TGI [2]: > 100 µM | TGI [3]: > 100 µM | TGI [4]: > 100 µM | TGI [5]: > 100 µM | TGI [6]: > 100 µM | TGI [7]: > 100 µM | TGI [8]: > 100 µM | TGI [9]: > 100 µM | TGI [10]: > 100 µM | TGI [11]: > 100 µM | TGI [12]: > 100 µM | TGI [13]: > 100 µM | TGI [14]: > 100 µM | TGI [15]: > 100 µM | TGI [16]: > 100 µM | TGI [17]: > 100 µM | TGI [18]: > 100 µM | TGI [19]: > 100 µM | TGI [20]: > 100 µM | TGI [21]: > 100 µM | TGI [22]: > 100 µM | TGI [23]: > 100 µM | TGI [24]: > 100 µM | TGI [25]: > 100 µM | TGI [57]: > 100 µM | TGI [26]: > 100 µM | TGI [28]: > 100 µM | TGI [29]: > 100 µM | TGI [30]: > 100 µM | TGI [58]: > 100 µM | TGI [31]: > 100 µM | TGI [32]: > 100 µM | TGI [33]: > 100 µM | TGI [34]: > 100 µM | TGI [35]: > 100 µM | TGI [36]: > 100 µM | TGI [37]: > 100 µM | TGI [38]: > 100 µM | TGI [39]: > 100 µM | TGI [40]: > 100 µM | TGI [41]: > 100 µM | TGI [42]: > 100 µM | TGI [43]: > 100 µM | TGI [44]: > 100 µM | TGI [45]: > 100 µM | TGI [46]: > 100 µM | TGI [47]: > 100 µM | TGI [48]: > 100 µM | TGI [50]: > 100 µM | TGI [51]: > 100 µM | TGI [52]: > 100 µM | TGI [53]: > 100 µM | TGI [54]: > 100 µM | TGI [59]: > 100 µM | TGI [55]: > 100 µM | TGI [56]: > 100 µM

O=C1OCC2=C1C(c1ccc(Cl)cc1)c1cc3c(cc1O2)OCO3 (centres undefined)
TGI [1]: > 100 µM | TGI [2]: 5.31 µM | TGI [3]: > 100 µM | TGI [4]: > 100 µM | TGI [6]: 46.3 µM | TGI [7]: > 100 µM | TGI [8]: > 100 µM | TGI [9]: > 100 µM | TGI [10]: > 100 µM | TGI [11]: > 27.2 µM | TGI [12]: > 100 µM | TGI [13]: > 100 µM | TGI [14]: > 100 µM | TGI [15]: > 35.4 µM | TGI [16]: > 100 µM | TGI [17]: > 100 µM | TGI [18]: > 100 µM | TGI [19]: > 31.2 µM | TGI [20]: > 100 µM | TGI [21]: > 100 µM | TGI [22]: > 100 µM | TGI [23]: > 31.6 µM | TGI [24]: > 100 µM | TGI [25]: > 25.1 µM | TGI [57]: > 100 µM | TGI [26]: 10.8 µM | TGI [27]: 12.8 µM | TGI [28]: > 100 µM | TGI [29]: > 100 µM | TGI [30]: > 100 µM | TGI [58]: > 100 µM | TGI [31]: > 100 µM | TGI [32]: > 100 µM | TGI [34]: > 100 µM | TGI [35]: > 100 µM | TGI [36]: > 100 µM | TGI [37]: > 100 µM | TGI [38]: > 100 µM | TGI [39]: > 100 µM | TGI [40]: > 100 µM | TGI [41]: > 100 µM | TGI [42]: > 100 µM | TGI [43]: > 100 µM | TGI [44]: > 100 µM | TGI [45]: > 100 µM | TGI [46]: > 100 µM | TGI [47]: > 100 µM | TGI [48]: > 100 µM | TGI [49]: > 72.2 µM | TGI [50]: > 100 µM | TGI [51]: 3.9 µM | TGI [52]: > 100 µM | TGI [53]: > 34.6 µM | TGI [54]: > 100 µM | TGI [55]: > 100 µM | TGI [56]: > 100 µM
